Test results from the NIST ThermoML archive (doi:10.1021/je900719z).

Details: Liquid, Ebulliometric method (Recirculating still)

CCO [ethanol]
Details	vapor or sublimation pressure [kPa]
325.48 K	33
326.03 K	33.9
326.48 K	34.6
326.93 K	35.3
327.33 K	36
327.8 K	36.8
328.26 K	37.6
328.73 K	38.4
329.18 K	39.2
329.62 K	40
330.11 K	40.9
330.62 K	41.9
331.16 K	42.9
331.66 K	43.9
332.17 K	44.9
332.68 K	45.9
333.15 K	46.9
333.86 K	48.4
334.55 K	49.9
335.17 K	51.3
335.84 K	52.8
336.28 K	53.85
336.81 K	55.13
337.31 K	56.32
337.86 K	57.69
338.32 K	58.87
338.97 K	60.49
339.47 K	61.82
339.99 K	63.19
340.47 K	64.47
340.82 K	65.48
341.18 K	66.45
341.68 K	67.91
342.01 K	68.92
342.53 K	70.35
343.05 K	71.88
343.54 K	73.35
343.97 K	74.68
344.41 K	76.08
344.93 K	77.68
345.3 K	78.95
345.77 K	80.44
346.17 K	81.82
346.75 K	83.74
347.17 K	85.17
347.51 K	86.38
347.91 K	87.78
348.29 K	89.17
348.62 K	90.34
349.03 K	91.82
349.36 K	93.08
349.67 K	94.24
350.05 K	95.68
350.44 K	97.16
350.82 K	98.63
351.17 K	100.02
351.51 K	101.38
351.76 K	102.37
352.07 K	103.64
352.45 K	105.17
352.79 K	106.59
353.15 K	108.08
353.5 K	109.58
353.79 K	110.8
354.14 K	112.36
354.46 K	113.75
354.82 K	115.35
355.15 K	116.81
355.51 K	118.44
355.85 K	120.01
356.22 K	121.68
356.54 K	123.23
356.81 K	124.46
357.16 K	126.16
357.48 K	127.68
357.89 K	129.67

O [water]
Details	vapor or sublimation pressure [kPa]
333.02 K	19.55
333.56 K	20.05
334.08 K	20.55
334.59 K	21.05
335.15 K	21.6
335.64 K	22.1
336.11 K	22.6
336.66 K	23.15
337.12 K	23.65
337.65 K	24.22
338.13 K	24.75
338.6 K	25.3
339.12 K	25.9
339.62 K	26.45
340.15 K	27.1
340.63 K	27.7
341.25 K	28.45
341.67 K	29
342.13 K	29.6
342.71 K	30.33
343.17 K	30.95
343.73 K	31.72
344.21 K	32.4
344.73 K	33.15
345.22 K	33.85
345.66 K	34.5
346.11 K	35.15
346.61 K	35.9
347.15 K	36.75
347.62 K	37.5
348.15 K	38.32
348.22 K	38.47
348.65 K	39.18
349.17 K	40.04
349.68 K	40.88
350.22 K	41.85
350.66 K	42.59
351.18 K	43.5
351.67 K	44.39
352.13 K	45.28
352.64 K	46.19
353.13 K	47.14
353.65 K	48.15
354.12 K	49.06
354.63 K	50.07
355.13 K	51.1
355.71 K	52.36
356.14 K	53.24
356.65 K	54.34
357.13 K	55.42
357.69 K	56.64
358.16 K	57.69
358.65 K	58.78
359.19 K	60.08
359.62 K	61.09
360.26 K	62.64
360.74 K	63.82
361.2 K	64.95
361.61 K	65.98
362.13 K	67.33
362.71 K	68.85
363.17 K	70.05
363.72 K	71.54
364.28 K	73.07
364.75 K	74.38
365.34 K	76.08
365.84 K	77.53
366.34 K	78.95
366.86 K	80.58
367.35 K	82.03
367.83 K	83.48
368.33 K	85.04
368.8 K	86.54
369.27 K	88.07
369.69 K	89.44
370.03 K	90.54
370.62 K	92.52
371.09 K	94.12
371.52 K	95.59
371.94 K	97.02
372.36 K	98.48
372.78 K	100.03
373.16 K	101.39
373.59 K	103
374 K	104.48
374.39 K	105.94
374.82 K	107.57
375.18 K	108.97
375.6 K	110.58
376.1 K	112.55
376.46 K	113.99
376.86 K	115.58
377.21 K	117.02
377.57 K	118.54
377.92 K	119.94
378.29 K	121.58
378.65 K	123.07
378.99 K	124.48
379.33 K	126.01
379.71 K	127.64
380 K	128.92
380.36 K	130.53
380.74 K	132.25
